Key:
[1] = Response of probe to Fe(II)
Experimental: FIG. 8. Ratiometric fluorescence turn-on response of HyP-1 (2 μM) in the presence of FeSO4 (20 μM) and FeSO4 (20 μM)+GSH (1 mM) in 50 mM HEPES buffer (pH 7.4, 0.1% v/v CrEL) after 1 h incubation at 37° C.
Fe(II)-mediated reduction of N-oxides has been exploited previously for the development of several fluorescent probes for this metal ion, thus it was critical for us to determine the response of HyP-1 to Fe(II). […] However, because intracellular concentrations of free iron are low due to sequestration by ferritin, this was not anticipated to be a major source of HyP-1 activation in vivo.

rat liver microsomes = assay: PA response after rat liver microsome incubation, tissue-mimicking phantom; assay type: biochemical; details: 2 h incubation with RLM, quenched with acetonitrile
Experimental: FIG. 4. Hypoxia-selective response of HyP-1 in vitro. […] Dashed lines indicate positioning of FEP tubes.
Tissue phantoms were prepared by suspending agarose (4 g) in a solution of 2% milk (2 mL) and deionized H2O (78 mL). The suspension was then heated in a microwave oven until a viscous gel was produced (30-50 seconds). The gel was transferred to a mold made by drilling holes through a 50 mL centrifuge tube and placing FEP tubes (0.08″ diameter) through the holes to create spaces for samples. After cooling the gel for a minimum of 3 hours, the solidified phantom was removed from the mold and cut with a razor blade such that the distance from the sample holes to the phantom's edges was 1.0 cm. To image samples, sample solutions were pipetted into FEP tubing (0.08″ diameter, cut to 10 cm long) which was inserted into the phantom and sealed by folding over the ends and securing with additional tubing (0.12″ diameter, cut to 5 mm long). Images were acquired using the Step and Shoot mode with 120 angles and 10 pulses per angle. Data was analysed using OsiriX Lite software (Version 8.0). Thick slab processing was used to visualize accumulated signal over 5 mm. ROIs of equal area were drawn around areas containing signal, and mean PA signal in each ROI was recorded.

[2] = Response to metal ions and reactive oxygen, nitrogen and sulfur species; details: 2 h, 37° C., phosphate buffer pH 7.4
Experimental: FIG. 9. Ratiometric fluorescent turn-on response of HyP-1 (2 μM) in the presence of various metal ions in 0.1 M potassium phosphate buffer (pH 7.4, 0.1% v/v CrEL) after 2 h incubation at 37° C. Concentrations used were 2 mM for Na^+, Mg^2+, K^+ and Ca^2+, and 50 μM for all other metal ions.
FIG. 10. Ratiometric fluorescence turn-on response of HyP-1 (2 μM) in the presence of various reactive oxygen, nitrogen and sulfur species (100 μM) in 0.1 M potassium phosphate buffer (pH 7.4, 0.1% v/v CrEL) after 2 h incubation at 37° C.
(§1) In addition to Fe(II), the response of HyP-1 to a variety of alkali, alkaline earth and transition metals was also determined. […] To further evaluate the stability of HyP-1, a 10 μM solution of the probe was exposed to ambient light and temperature for up to 5 days. Additionally, a 10 μM solution of HyP-1 supplemented with human plasma was incubated at 37° C. for 3 hours. […] As mentioned previously, a major limitation of 2-nitroimidazole-based hypoxia probes is their susceptibility to oxygen-independent reduction via two-electron processes, such as by bacterial nitroreductases. […] Finally, the photostability of both HyP-1 and red-HyP-1 was evaluated via continuous PA image acquisition at 770 nm over the course of 1 hour.

4T1 tumour allografts = assay: In vivo PA imaging of hypoxic tumour model; parameters: species or system BALB/c mice; details: tail vein injection 0.3 mg/kg; 770 nm
Experimental: Next, attention was turned to the application of HyP-1 for hypoxia detection using PA imaging. HyP-1 (50 μL, 0.3 mg/kg) was administered to tumour-bearing mice intravenously via tail vein injection, and PA images of both the tumour-bearing and control flanks were acquired at 1, 3 and 5 hours following injection. […] The 3D-reconstructions of the PA images enabled visualization of specific areas within the tumour where signal was highest, a significant improvement compared to the minimally resolved signal obtained using fluorescence imaging (FIG. 6b). It was hypothesized that these areas of high intensity correlate with the highest concentrations of red-HyP-1, and therefore with regions of most severe hypoxia.
All in vivo imaging experiments were performed with the approval of the Institutional Animal Care and Use Committee of the University of Illinois at Urbana-Champaign, following the principles outlined by the American Physiological Society on research animal use. […]
Prior to imaging, hair was removed from the lower body half by shaving and treating with a topical hair removal cream. […] Data was analysed using OsiriX software. […] ROIs of equal area were drawn to include all visible signal in the image, and mean PA signal in each ROI was recorded. Change in PA signal was calculated by subtracting signal from images taken prior to injection from those at given time points.

[3] = Chemostability under ambient light and temperature; assay type: physicochemical; details: 10 μM solution, up to 5 days
Experimental: FIG. 11. Fluorescence intensity (Ex.=670 nm) of HyP-1 (2 μM) at the indicated time points during extended incubation in 0.1 M potassium phosphate buffer (pH 7.4, 0.1% v/v CrEL) under ambient light and temperature. Represented as mean±SD (n=3).
as §1

[4] = Stability in human plasma; assay type: in vitro ADME; details: 10 μM solution supplemented with human plasma, 37° C., 3 hours
Experimental: FIG. 12. Fluorescence intensity (Ex.=670 nm) of HyP-1 (2 μM) at the indicated time points during incubation in 0.1 M potassium phosphate buffer (pH 7.4) supplemented with human plasma (20% v/v) at 37° C. for 3 h.
as §1

Structure (SMILES): CC[N+]([O-])(CC)c1ccc(-c2cc(-c3ccccc3)c3n2[B-](F)(F)[N+]2=C(c4ccc(OC)cc4)C=C(c4ccccc4)C2=N3)cc1 [HyP-1, 4-(5,5-difluoro-7-(4-methoxyphenyl)-1,9-diphenyl-5H-5λ^4,6λ^4-dipyrrolo[1,2-c:2′,1′-f][1,3,5,2]triazaborinin-3-yl)-N,N-diethylaniline oxide]
- ratiometric turn-on ([1]; 20 μM FeSO4 + 1 mM GSH, HEPES buffer, 1 h): 35 fold
- ratiometric turn-on ([1]; 20 μM FeSO4 in HEPES buffer, 1-hour incubation): 8 fold
- PA signal (770 nm), hypoxic reaction versus normoxic (rat liver microsomes): 4 fold
- turn-on response to alkali, alkaline earth and transition metals [2]: No significant turn-on
- PA signal increase in control flank (4T1 tumour allografts): no increase
- mean PA signal increase in tumour tissue (4T1 tumour allografts): 20.5 a.u.
- decomposition under ambient light and temperature [3]: no substantial decomposition
- decomposition in human plasma [4]: no substantial decomposition

— patent US11292803B2, “Bioreducible N-oxide-based probes for imaging of hypoxia” (THE BOARD OF TRUSTEES OF THE UNIVERSITY OF ILLINOIS, priority 2018, dated 2022)
